According to PubChem BioAssay AID330 (DTP/NCI, 2004):
Several values for one entry are separate records, joined by “and”; a condition that tells them apart may be missing. Equal values may be shown once. Inconclusive results and toxic doses are left out. Rule for the calls: active = survival T/C of 150% or more; inactive = T/C below 125% in these data.

System: P388 leukemia ip, CD2F1 mice, survival T/C
Assay: NCI In Vivo Anticancer Drug Screen. Data for tumor model P388 Leukemia (intraperitoneal) in CD2F1 (CDF1) mice
Settings: endpoint: median survival time, higher = longer survival
Procedure, shortened: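 Mice carrying the transplanted tumor received test compound or vehicle. Survival was recorded in each group, and the value is the treated-group measurement divided by that of the vehicle-treated control group.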

[1] = dose: 100.0 mg/kg/injection, schedule: Q01DX009 (ip), vehicle: saline with Tween-80
[2] = dose: 200.0 mg/kg/injection, schedule: Q01DX009 (ip), vehicle: saline with Tween-80
[3] = dose: 400.0 mg/kg/injection, schedule: Q01DX009 (ip), vehicle: saline with Tween-80
[4] = dose: 50.0 mg/kg/injection, schedule: Q01DX009 (ip), vehicle: saline
[5] = dose: 100.0 mg/kg/injection, schedule: Q01DX009 (ip), vehicle: saline
[6] = dose: 200.0 mg/kg/injection, schedule: Q01DX009 (ip), vehicle: saline
[7] = dose: 50.0 mg/kg/injection, schedule: Q01DX005 (ip), vehicle: saline
[8] = dose: 100.0 mg/kg/injection, schedule: Q01DX005 (ip), vehicle: saline
[9] = dose: 200.0 mg/kg/injection, schedule: Q01DX005 (ip), vehicle: saline

Measured: T/C

C=C(C)C1Cc2c(ccc3c2OC2COc4cc(OC)c(OC)cc4C2C3=O)O1 (stereo not drawn)
inactive: [1] 86 % of control | [2] 95 % of control | [3] 95 % of control

C=CC(=O)NC(C)(C)CC(=O)O
inactive: [4] 100 % of control | [5] 100 % of control | [6] 99 % of control

COC(=O)c1cccc(COc2ccc([N+](=O)[O-])cc2Cl)c1
inactive: [1] 100 % of control | [2] 100 % of control | [3] 110 % of control

COC(=O)c1n[nH]nc1CC(N)=O
inactive: [7] 105 % of control | [8] 105 % of control | [9] 103 % of control

C=CCCOC1CCCCO1 (stereo not drawn)
inactive: dose: 50.0 mg/kg/injection, schedule: Q01DX009 (ip), vehicle: other 104 % of control | dose: 100.0 mg/kg/injection, schedule: Q01DX009 (ip), vehicle: other 104 % of control | dose: 200.0 mg/kg/injection, schedule: Q01DX009 (ip), vehicle: other 100 % of control

FC(F)(F)C1=C(C(F)(F)F)SP23(OCCC(CO2)O3)S1 (stereo not drawn)
inactive: dose: 12.5 mg/kg/injection, schedule: Q01DX009 (ip), vehicle: Klucel (hydroxypropylcellulose) (HPC) 107 % of control and 108 % of control | dose: 25.0 mg/kg/injection, schedule: Q01DX009 (ip), vehicle: Klucel (hydroxypropylcellulose) (HPC) 106 % of control and 114 % of control | dose: 50.0 mg/kg/injection, schedule: Q01DX009 (ip), vehicle: Klucel (hydroxypropylcellulose) (HPC) 109 % of control and 114 % of control | dose: 100.0 mg/kg/injection, schedule: Q01DX009 (ip), vehicle: Klucel (hydroxypropylcellulose) (HPC) 107 % of control and 116 % of control

CC(=O)NC1C(Nc2ccc(S(=O)(=O)Nc3cc(C)nc(C)n3)cc2)OC(CO)C(O)C1O (stereo not drawn)
inactive: [7] 108 % of control | [8] 98 % of control | [9] 101 % of control

CCCCCCCCCCCCCCCCCCOS(=O)(=O)O (tested in a mixture with another compound)
inactive: [4] 102 % of control | [5] 104 % of control | [6] 104 % of control

N=C(N)c1ccc(/C=C/c2cc3ccc(C(=N)N)cc3[nH]2)cc1
inactive: dose: 6.25 mg/kg/injection, schedule: Q04DX003 (ip), vehicle: saline 113 % of control

O=C(O)CC1OCC=C2CN3CCC45c6ccccc6NC4C1C2CC35 (stereo not drawn)
inactive: dose: 0.93 mg/kg/injection, schedule: Q01DX005 (ip), vehicle: Klucel (hydroxypropylcellulose) (HPC) 100 % of control | dose: 1.87 mg/kg/injection, schedule: Q01DX005 (ip), vehicle: Klucel (hydroxypropylcellulose) (HPC) 98 % of control | dose: 7.5 mg/kg/injection, schedule: Q01DX005 (ip), vehicle: saline with Tween-80 100 % of control | dose: 15.0 mg/kg/injection, schedule: Q01DX005 (ip), vehicle: saline with Tween-80 100 % of control | dose: 30.0 mg/kg/injection, schedule: Q01DX005 (ip), vehicle: saline with Tween-80 100 % of control

COc1cc(Cc2n[nH]c(=S)n2-c2ccccc2)c(S(=O)(=O)N2CCOCC2)cc1OC
inactive: dose: 60.0 mg/kg/injection, schedule: Q01DX005 (ip), vehicle: saline 102 % of control | dose: 120.0 mg/kg/injection, schedule: Q01DX005 (ip), vehicle: saline 95 % of control | dose: 240.0 mg/kg/injection, schedule: Q01DX005 (ip), vehicle: saline 95 % of control

O=S(=O)(O)O.[Fe]
inactive: dose: 12.5 mg/kg/injection, schedule: Q01DX009 (ip), vehicle: saline with Tween-80 95 % of control | dose: 25.0 mg/kg/injection, schedule: Q01DX009 (ip), vehicle: saline with Tween-80 95 % of control | dose: 50.0 mg/kg/injection, schedule: Q01DX009 (ip), vehicle: saline with Tween-80 86 % of control

NC(=O)NC1CC2CCC1C2 (stereo not drawn)
inactive: [7] 101 % of control | [8] 101 % of control | [9] 105 % of control

COc1cc(-c2ccc(N=Nc3ccc(N)nc3N)c(OC)c2)ccc1N=Nc1ccc(N)nc1N
inactive: dose: 50.0 mg/kg/injection, schedule: Q01DX005 (ip), vehicle: saline with Tween-80 101 % of control | dose: 100.0 mg/kg/injection, schedule: Q01DX005 (ip), vehicle: saline with Tween-80 104 % of control | dose: 200.0 mg/kg/injection, schedule: Q01DX005 (ip), vehicle: saline with Tween-80 90 % of control
